The results in this text go back to PMC11586411 (Translational Psychiatry, 2023).

Molecules are shown by their SMILES.

The target in the experiment is T1, kappa-opioid receptor (KOP) (Homo sapiens, UniProt P41145).
T1 construct: gene OPRK1
In words: FLIM in live cells: blocks the dynorphin A-induced change of KOP-eGFP lifetime. Format: cell-based.

T1 sequence (P41145 whole entry): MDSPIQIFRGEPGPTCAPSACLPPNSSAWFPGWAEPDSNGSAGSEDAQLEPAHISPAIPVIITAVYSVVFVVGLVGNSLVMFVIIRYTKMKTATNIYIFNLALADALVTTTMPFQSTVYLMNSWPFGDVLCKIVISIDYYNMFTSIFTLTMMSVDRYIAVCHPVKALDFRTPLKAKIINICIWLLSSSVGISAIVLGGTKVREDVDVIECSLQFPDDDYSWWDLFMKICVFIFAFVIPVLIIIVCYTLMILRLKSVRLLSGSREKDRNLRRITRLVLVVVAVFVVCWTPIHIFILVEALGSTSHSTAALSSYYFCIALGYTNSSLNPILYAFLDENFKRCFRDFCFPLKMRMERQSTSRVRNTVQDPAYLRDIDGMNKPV

With `CC(C)[C@@H](CN1CC[C@@](C)(c2cccc(O)c2)[C@@H](C)C1)NC(=O)[C@H]1Cc2ccc(O)cc2CN1` [JDTic], the “FLIM in live cells: blocks the dynorphin A-induced change of KOP-eGFP lifetime” value was “both NTX and the KOP-selective antagonist JDTic blocked this effect, suggesting that DynA binds to KOP-eGFP”.
